Assay results taken from paper PMC10425210 (The Journal of Clinical Investigation, 2023).

Assay: Plasma pharmacokinetics after a single subcutaneous administration of LEN
Type: in vivo, rhesus macaques
Settings: for concentration at 8 week: week 8 post dose; for concentration at 9 week: week 9 post dose; for concentration at 10 week: week 10 post dose; for concentration at 11 week: week 11 post dose; for concentration at 12 week: week 12 post dose; for concentration at 14 week: week 14 post dose
Method: All animals were housed at Bioqual Inc. For the in vivo SHIV stock titration study, 8 untreated outbred Indian-origin male rhesus macaques aged 3–5 years were challenged intrarectally per round for a total of 5 challenge rounds using increasing virus doses ranging from 0.625 to 100 TCID50, with the 100 TCID50 round performed twice for increased resolution (Supplemental Table 2). Plasma viral load was measured to confirm the infection status. […] Injection sites were monitored daily by veterinary staff for 2 weeks and then weekly through the end of study. On week 7, 11 animals were challenged by the intrarectal route with 1 mL RPMI containing 100 TCID50 SHIV-SF162P3. Whole blood was collected and processed into plasma and PBMCs as necessary for the assessment of routine hematology and clinical chemistry, viral load analysis, serology, and the bioanalysis of drug levels. Animals were considered protected if they remained SHIV negative by a plasma PCR assay and seronegative by enzyme immunoassay through week 10 after challenge.
Rhesus plasma samples were stored frozen at –80°C and thawed, and a 50 μL aliquot of each was treated with 200 μL acetonitrile containing an internal standard. After precipitation of the protein component, a 100 μL aliquot of the supernatant was transferred to a clean 96-well plate and mixed with 200 μL water. A 10 μL aliquot of the above solution was then injected into a Q-Exactive high resolution mass spectrometer from Thermo Electron with electrospray ionization in positive mode.

[1] = male, Indian-origin (outbred), rhesus monkey, plasma, subcutaneous, 5 mg/kg, Plasma LEN (Mean), 5 mg/kg sc
[2] = male, Indian-origin (outbred), rhesus monkey, plasma, subcutaneous, 10 mg/kg, Plasma LEN (Mean), 10 mg/kg sc
[3] = male, Indian-origin (outbred), rhesus monkey, plasma, subcutaneous, 20 mg/kg, Plasma LEN (Mean), 20 mg/kg sc

CC(C)(C#Cc1ccc(-c2ccc(Cl)c3c(NS(C)(=O)=O)nn(CC(F)(F)F)c23)c([C@H](Cc2cc(F)cc(F)c2)NC(=O)Cn2nc(C(F)(F)F)c3c2C(F)(F)[C@@H]2C[C@H]32)n1)S(C)(=O)=O [LEN, Lenacapavir]
dose proportionality of exposure (5 to 20 mg/kg sc): dose-proportional increase
dose proportionality of exposure (50 to 75 mg/kg sc): more than dose-proportional increase
Plasma LEN (animal BM55, 20 mg/kg, week 0 post challenge): 38.60 nM
Plasma LEN (animal BM55, 20 mg/kg, week 6 post challenge): 10.80 nM
Plasma LEN (animal BM55, 20 mg/kg, week 7 post challenge): 7.10 nM
Plasma LEN (animal BM55, 20 mg/kg, week 8 post challenge): 5.30 nM
Plasma LEN (animal BM55, 20 mg/kg, week 9 post challenge): 3.80 nM
Plasma LEN (animal BM55, 20 mg/kg, week 10 post challenge): 4.10 nM
Plasma LEN (animal BN33, 20 mg/kg, week 0 post challenge): 18.60 nM
Plasma LEN (animal BN33, 20 mg/kg, week 6 post challenge): 9.10 nM
Plasma LEN (animal BN33, 20 mg/kg, week 7 post challenge): 5.71 nM
Plasma LEN (animal BN33, 20 mg/kg, week 8 post challenge): 6.90 nM
Plasma LEN (animal BN33, 20 mg/kg, week 9 post challenge): 4.70 nM
Plasma LEN (animal BN33, 20 mg/kg, week 10 post challenge): 4.50 nM
Plasma LEN (animal CO92, 50 mg/kg, week 0 post challenge): 50.08 nM
Plasma LEN (animal CO92, 50 mg/kg, week 1 post challenge): 62.65 nM
Plasma LEN (animal CO92, 50 mg/kg, week 2 post challenge): 47.76 nM
Plasma LEN (animal CO92, 50 mg/kg, week 3 post challenge): 52.01 nM
Plasma LEN (animal CO92, 50 mg/kg, week 4 post challenge): 67.23 nM
Plasma LEN (animal CO92, 50 mg/kg, week 5 post challenge): 66.62 nM
Plasma LEN (animal CO92, 50 mg/kg, week 6 post challenge): 66.12 nM
Plasma LEN (animal CO92, 50 mg/kg, week 7 post challenge): 36.27 nM
Plasma LEN (animal CO92, 50 mg/kg, week 8 post challenge): 42.04 nM
Plasma LEN (animal CO92, 50 mg/kg, week 9 post challenge): 52.87 nM
Plasma LEN (animal CO92, 50 mg/kg, week 10 post challenge): 56.39 nM
Plasma LEN (animal CO92, 50 mg/kg, week 11 post challenge): 43.33 nM
Plasma LEN (animal CO92, 50 mg/kg, week 12 post challenge): 27.05 nM
Plasma LEN (animal CO92, 50 mg/kg, week 13 post challenge): 18.50 nM
Plasma LEN (animal CO92, 50 mg/kg, week 14 post challenge): 13.10 nM
Plasma LEN (animal CO92, 50 mg/kg, week 15 post challenge): 18.82 nM
Plasma LEN (animal CO92, 50 mg/kg, week 16 post challenge): 13.67 nM
Plasma LEN (animal CP67, 75 mg/kg, week 8 post challenge): 37.09 nM
Plasma LEN (animal CP67, 75 mg/kg, week 9 post challenge): 36.45 nM
Plasma LEN (animal CP67, 75 mg/kg, week 10 post challenge): 23.67 nM
Plasma LEN (animal CP67, 75 mg/kg, week 11 post challenge): 20.33 nM
Plasma LEN (animal V229, 20 mg/kg, week 0 post challenge): 37.30 nM
Plasma LEN (animal V229, 20 mg/kg, week 6 post challenge): 15.10 nM
Plasma LEN (animal V229, 20 mg/kg, week 7 post challenge): 8.33 nM
Plasma LEN (animal V229, 20 mg/kg, week 8 post challenge): 6.00 nM
Plasma LEN (animal V229, 20 mg/kg, week 9 post challenge): 3.70 nM
Plasma LEN (animal V229, 20 mg/kg, week 10 post challenge): 4.60 nM
Plasma LEN (animal V411, 50 mg/kg, week 0 post challenge): 143.42 nM
Plasma LEN (animal V411, 50 mg/kg, week 1 post challenge): 64.99 nM
Plasma LEN (animal V411, 50 mg/kg, week 2 post challenge): 55.43 nM
Plasma LEN (animal V411, 50 mg/kg, week 3 post challenge): 47.46 nM
Plasma LEN (animal V411, 50 mg/kg, week 4 post challenge): 28.61 nM
Plasma LEN (animal V411, 50 mg/kg, week 5 post challenge): 19.46 nM
Plasma LEN (animal V411, 50 mg/kg, week 6 post challenge): 17.89 nM
Plasma LEN (animal V411, 50 mg/kg, week 7 post challenge): 11.22 nM
Plasma LEN (animal V411, 50 mg/kg, week 8 post challenge): 7.46 nM
Plasma LEN (animal V411, 50 mg/kg, week 9 post challenge): 7.40 nM
Plasma LEN (animal V411, 50 mg/kg, week 10 post challenge): 5.89 nM
Plasma LEN (animal V411, 50 mg/kg, week 11 post challenge): 3.67 nM
Plasma LEN (animal V411, 50 mg/kg, week 12 post challenge): 2.40 nM
Plasma LEN (animal V411, 50 mg/kg, week 13 post challenge): 3.03 nM
Plasma LEN (animal V411, 50 mg/kg, week 14 post challenge): 2.52 nM
Plasma LEN (animal V411, 50 mg/kg, week 15 post challenge): 2.21 nM
Plasma LEN (animal V411, 50 mg/kg, week 16 post challenge): 1.79 nM
Plasma LEN (animal V417, 75 mg/kg, week 8 post challenge): 23.00 nM
Plasma LEN (animal V417, 75 mg/kg, week 9 post challenge): 32.44 nM
Plasma LEN (animal V417, 75 mg/kg, week 10 post challenge): 33.77 nM
Plasma LEN (animal V426, 75 mg/kg, week 8 post challenge): 36.31 nM
Plasma LEN (animal V426, 75 mg/kg, week 9 post challenge): 52.45 nM
Plasma LEN (animal V426, 75 mg/kg, week 10 post challenge): 38.56 nM
Plasma LEN (animal V426, 75 mg/kg, week 11 post challenge): 38.65 nM
Plasma LEN (animal V430, 50 mg/kg, week 0 post challenge): 117.17 nM
Plasma LEN (animal V430, 50 mg/kg, week 1 post challenge): 47.07 nM
Plasma LEN (animal V430, 50 mg/kg, week 2 post challenge): 55.06 nM
Plasma LEN (animal V430, 50 mg/kg, week 3 post challenge): 44.89 nM
Plasma LEN (animal V430, 50 mg/kg, week 4 post challenge): 40.12 nM
Plasma LEN (animal V430, 50 mg/kg, week 5 post challenge): 30.18 nM
Plasma LEN (animal V430, 50 mg/kg, week 6 post challenge): 23.37 nM
Plasma LEN (animal V430, 50 mg/kg, week 7 post challenge): 9.85 nM
Plasma LEN (animal V430, 50 mg/kg, week 8 post challenge): 6.90 nM
Plasma LEN (animal V430, 50 mg/kg, week 9 post challenge): 7.41 nM
Plasma LEN (animal V430, 50 mg/kg, week 10 post challenge): 7.29 nM
Plasma LEN (animal V430, 50 mg/kg, week 11 post challenge): 3.38 nM
Plasma LEN (animal V430, 50 mg/kg, week 12 post challenge): 2.44 nM
Plasma LEN (animal V430, 50 mg/kg, week 13 post challenge): 1.41 nM
Plasma LEN (animal V430, 50 mg/kg, week 14 post challenge): 1.81 nM
Plasma LEN (animal V430, 50 mg/kg, week 15 post challenge): 1.32 nM
Plasma LEN (animal V435, 75 mg/kg, week 7 post challenge): 3.85 nM
Plasma LEN (animal V435, 75 mg/kg, week 8 post challenge): 2.05 nM
Plasma LEN (animal V435, 75 mg/kg, week 9 post challenge): 2.10 nM
Plasma LEN (animal V435, 75 mg/kg, week 10 post challenge): 1.92 nM
Plasma LEN (animal V470, 50 mg/kg, week 0 post challenge): 100.49 nM
Plasma LEN (animal V470, 50 mg/kg, week 1 post challenge): 40.04 nM
Plasma LEN (animal V470, 50 mg/kg, week 2 post challenge): 48.42 nM
Plasma LEN (animal V470, 50 mg/kg, week 3 post challenge): 50.54 nM
Plasma LEN (animal V470, 50 mg/kg, week 4 post challenge): 46.19 nM
Plasma LEN (animal V470, 50 mg/kg, week 5 post challenge): 35.17 nM
Plasma LEN (animal V470, 50 mg/kg, week 6 post challenge): 44.02 nM
Plasma LEN (animal V470, 50 mg/kg, week 7 post challenge): 26.59 nM
Plasma LEN (animal V470, 50 mg/kg, week 8 post challenge): 17.23 nM
Plasma LEN (animal V470, 50 mg/kg, week 9 post challenge): 20.99 nM
Plasma LEN (animal V470, 50 mg/kg, week 10 post challenge): 19.02 nM
Plasma LEN (animal V470, 50 mg/kg, week 11 post challenge): 17.74 nM
Plasma LEN (animal V470, 50 mg/kg, week 12 post challenge): 12.55 nM
Plasma LEN (animal V470, 50 mg/kg, week 13 post challenge): 11.15 nM
Plasma LEN (animal V470, 50 mg/kg, week 14 post challenge): 8.52 nM
Plasma LEN (animal V470, 50 mg/kg, week 15 post challenge): 6.58 nM
Plasma LEN (animal V470, 50 mg/kg, week 16 post challenge): 6.37 nM
duration of plasma exposures above the paEC95 (8.8 nM) (eleven animals of the 3 highest dosing groups): over 10 weeks
concentration at 8 week [1]: 4.42 nM
concentration at 9 week [1]: 5.79 nM
concentration at 10 week [1]: 3.41 nM
concentration at 11 week [1]: 4.16 nM
concentration at 12 week [1]: 1.87 nM
concentration at 14 week [1]: 1.45 nM
concentration at 8 week [2]: 9.6 nM
concentration at 9 week [2]: 10.1 nM
concentration at 10 week [2]: 8.41 nM
concentration at 11 week [2]: 5.96 nM
concentration at 12 week [2]: 5.13 nM
concentration at 14 week [2]: 3.63 nM
concentration at 8 week [3]: 26.1 nM
concentration at 9 week [3]: 28 nM
concentration at 10 week [3]: 27.9 nM
concentration at 11 week [3]: 15 nM
concentration at 12 week [3]: 9.8 nM
concentration at 13 week (male, Indian-origin (outbred), rhesus monkey, plasma, subcutaneous, 20 mg/kg, Plasma LEN (Mean), 20 mg/kg sc, week 13 post dose): 11.7 nM
concentration at 14 week [3]: 7.07 nM
concentration at 15 week (male, Indian-origin (outbred), rhesus monkey, plasma, subcutaneous, 20 mg/kg, Plasma LEN (Mean), 20 mg/kg sc, week 15 post dose): 6.07 nM
concentration at 16 week (male, Indian-origin (outbred), rhesus monkey, plasma, subcutaneous, 20 mg/kg, Plasma LEN (Mean), 20 mg/kg sc, week 16 post dose): 4.07 nM
concentration at 17 week (male, Indian-origin (outbred), rhesus monkey, plasma, subcutaneous, 20 mg/kg, Plasma LEN (Mean), 20 mg/kg sc, week 17 post dose): 4.4 nM
concentration at 8 week (male, Indian-origin (outbred), rhesus monkey, plasma, subcutaneous, 50 mg/kg, Plasma LEN (Mean), 50 mg/kg sc): 53.7 nM
